# What was measured:
# Format in all cases: functional
# Sporothrix schenckii [1] = test: Antifungal activity against Sporothrix schenckii P1621 isolate from cutaneous-lymphatic sporotrichosis patient after 72 hrs by Sensititre YeastOne method
# Sporothrix schenckii [2] = test: Antifungal activity against Sporothrix schenckii P0019 isolate from cutaneous-lymphatic sporotrichosis patient after 72 hrs by ATB Fungus 2 method
# Sporothrix schenckii [3] = test: Antifungal activity against Sporothrix schenckii P24255 isolate from cutaneous-lymphatic sporotrichosis patient after 72 hrs by ATB Fungus 2 method
# Sporothrix schenckii [4] = test: Antifungal activity against Sporothrix schenckii PGAC0016 isolate from cutaneous-lymphatic sporotrichosis patient after 72 hrs by Sensititre YeastOne method
# Pichia kudriavzevii [5] = test: Antifungal activity against Candida krusei ATCC 6258 […] after 72 hrs by ATB Fungus 2 method; conditions: ATCC 6258, 72 h
# Sporothrix schenckii [6] = test: Antifungal activity against Sporothrix schenckii PGAC0016 isolate from cutaneous-lymphatic sporotrichosis patient after 72 hrs by ATB Fungus 2 method
# Sporothrix schenckii [7] = test: Antifungal activity against Sporothrix schenckii P25013 isolate from cutaneous-lymphatic sporotrichosis patient after 72 hrs by ATB Fungus 2 method
# Sporothrix schenckii [8] = test: Antifungal activity against Sporothrix schenckii P30019 isolate from cutaneous-lymphatic sporotrichosis patient after 72 hrs by Sensititre YeastOne method
# Sporothrix schenckii [9] = test: Antifungal activity against Sporothrix schenckii P3287 isolate from cutaneous-lymphatic sporotrichosis patient after 72 hrs by ATB Fungus 2 method
# Sporothrix schenckii [10] = test: Antifungal activity against Sporothrix schenckii PJRC002 isolate from cutaneous-lymphatic sporotrichosis patient after 72 hrs by ATB Fungus 2 method
# Sporothrix schenckii [11] = test: Antifungal activity against Sporothrix schenckii P20825 isolate from cutaneous-lymphatic sporotrichosis patient after 72 hrs by ATB Fungus 2 method
# Sporothrix schenckii [12] = test: Antifungal activity against Sporothrix schenckii P24223 isolate from cutaneous-lymphatic sporotrichosis patient after 72 hrs by ATB Fungus 2 method
# Candida parapsilosis [13] = test: Antifungal activity against Candida parapsilosis ATCC 22019 […] after 72 hrs by modified NCCLS M38-A method; conditions: Lodderomyces parapsilosis, ATCC 22019, 72 h
# Sporothrix schenckii [14] = test: Antifungal activity against Sporothrix schenckii P10012 isolate from cutaneous-lymphatic sporotrichosis patient after 72 hrs by Sensititre YeastOne method
# Sporothrix schenckii [15] = test: Antifungal activity against Sporothrix schenckii SSA29 isolate from cutaneous-lymphatic sporotrichosis patient after 72 hrs by Sensititre YeastOne method
# Sporothrix schenckii [16] = test: Antifungal activity against Sporothrix schenckii isolate from cutaneous-lymphatic sporotrichosis patient after 72 hrs by Sensititre YeastOne method
# Sporothrix schenckii [17] = test: Antifungal activity against Sporothrix schenckii PSCC1 isolate from cutaneous-lymphatic sporotrichosis patient after 72 hrs by Sensititre YeastOne method
# Sporothrix schenckii [18] = test: Antifungal activity against Sporothrix schenckii MRSS4 isolate from cutaneous-lymphatic sporotrichosis patient after 72 hrs by Sensititre YeastOne method
# Candida parapsilosis [19] = test: Antifungal activity against Candida parapsilosis ATCC 22019 […] after 72 hrs by Sensititre YeastOne method; conditions: Lodderomyces parapsilosis, ATCC 22019, 72 h
# Sporothrix schenckii [20] = test: Antifungal activity against Sporothrix schenckii PJRC002 isolate from cutaneous-lymphatic sporotrichosis patient after 72 hrs by Sensititre YeastOne method
# Sporothrix schenckii [21] = test: Antifungal activity against Sporothrix schenckii P30915 isolate from cutaneous-lymphatic sporotrichosis patient after 72 hrs by Sensititre YeastOne method
# Sporothrix schenckii [22] = test: Antifungal activity against Sporothrix schenckii P14036 isolate from cutaneous-lymphatic sporotrichosis patient after 72 hrs by Sensititre YeastOne method
# Sporothrix schenckii [23] = test: Antifungal activity against Sporothrix schenckii P24223 isolate from cutaneous-lymphatic sporotrichosis patient after 72 hrs by Sensititre YeastOne method
# Sporothrix schenckii [24] = test: Antifungal activity against Sporothrix schenckii P20825 isolate from cutaneous-lymphatic sporotrichosis patient after 72 hrs by Sensititre YeastOne method
# Sporothrix schenckii [25] = test: Antifungal activity against Sporothrix schenckii P25013 isolate from cutaneous-lymphatic sporotrichosis patient after 72 hrs by Sensititre YeastOne method
# Sporothrix schenckii [26] = test: Antifungal activity against Sporothrix schenckii P0019 isolate from cutaneous-lymphatic sporotrichosis patient after 72 hrs by Sensititre YeastOne method
# Sporothrix schenckii [27] = test: Antifungal activity against Sporothrix schenckii MRSS4 isolate from cutaneous-lymphatic sporotrichosis patient after 72 hrs by ATB Fungus 2 method
# Sporothrix schenckii [28] = test: Antifungal activity against Sporothrix schenckii P10012 isolate from cutaneous-lymphatic sporotrichosis patient after 72 hrs by ATB Fungus 2 method
# Candida parapsilosis [29] = test: Antifungal activity against Candida parapsilosis ATCC 22019 […] after 72 hrs by ATB Fungus 2 method; conditions: Lodderomyces parapsilosis, ATCC 22019, 72 h
# Sporothrix schenckii [30] = test: Antifungal activity against Sporothrix schenckii P30019 isolate from cutaneous-lymphatic sporotrichosis patient after 72 hrs by ATB Fungus 2 method
# Sporothrix schenckii [31] = test: Antifungal activity against Sporothrix schenckii P24255 isolate from cutaneous-lymphatic sporotrichosis patient after 72 hrs by Sensititre YeastOne method
# Sporothrix schenckii [32] = test: Antifungal activity against Sporothrix schenckii SSA29 isolate from cutaneous-lymphatic sporotrichosis patient after 72 hrs by ATB Fungus 2 method
# Sporothrix schenckii [33] = test: Antifungal activity against Sporothrix schenckii P14036 isolate from cutaneous-lymphatic sporotrichosis patient after 72 hrs by ATB Fungus 2 method
# Pichia kudriavzevii [34] = test: Antifungal activity against Candida krusei ATCC 6258 […] after 72 hrs by modified NCCLS M38-A method; conditions: ATCC 6258, 72 h
# Sporothrix schenckii [35] = test: Antifungal activity against Sporothrix schenckii P26187 isolate from cutaneous-lymphatic sporotrichosis patient after 72 hrs by Sensititre YeastOne method
# Sporothrix schenckii [36] = test: Antifungal activity against Sporothrix schenckii PSSA81 isolate from cutaneous-lymphatic sporotrichosis patient after 72 hrs by Sensititre YeastOne method
# Sporothrix schenckii [37] = test: Antifungal activity against Sporothrix schenckii P30019 isolate from cutaneous-lymphatic sporotrichosis patient after 72 hrs by modified NCCLS M38-A method
# Sporothrix schenckii [38] = test: Antifungal activity against Sporothrix schenckii isolate from cutaneous-lymphatic sporotrichosis patient after 72 hrs by modified NCCLS M38-A method
# Sporothrix schenckii [39] = test: Antifungal activity against Sporothrix schenckii isolate from cutaneous-lymphatic sporotrichosis patient after 72 hrs by ATB Fungus 2 method
# Sporothrix schenckii [40] = test: Antifungal activity against Sporothrix schenckii P3287 isolate from cutaneous-lymphatic sporotrichosis patient after 72 hrs by Sensititre YeastOne method
# Sporothrix schenckii [41] = test: Antifungal activity against Sporothrix schenckii P26187 isolate from cutaneous-lymphatic sporotrichosis patient after 72 hrs by ATB Fungus 2 method
# Sporothrix schenckii [42] = test: Antifungal activity against Sporothrix schenckii P14954 isolate from cutaneous-lymphatic sporotrichosis patient after 72 hrs by Sensititre YeastOne method
# Sporothrix schenckii [43] = test: Antifungal activity against Sporothrix schenckii PSCC1 isolate from cutaneous-lymphatic sporotrichosis patient after 72 hrs by ATB Fungus 2 method
# Sporothrix schenckii [44] = test: Antifungal activity against Sporothrix schenckii P14954 isolate from cutaneous-lymphatic sporotrichosis patient after 72 hrs by ATB Fungus 2 method
# Pichia kudriavzevii [45] = test: Antifungal activity against Candida krusei ATCC 6258 […] after 72 hrs by Sensititre YeastOne method; conditions: ATCC 6258, 72 h
# Sporothrix schenckii [46] = test: Antifungal activity against Sporothrix schenckii P1621 isolate from cutaneous-lymphatic sporotrichosis patient after 72 hrs by ATB Fungus 2 method
# Sporothrix schenckii [47] = test: Antifungal activity against Sporothrix schenckii P30915 isolate from cutaneous-lymphatic sporotrichosis patient after 72 hrs by ATB Fungus 2 method
smiles,measurement,setting,value
Nc1nc(=O)[nH]cc1F [FLUCYTOSINE],MIC,Sporothrix schenckii [1],8 µg/mL
same,MIC,Sporothrix schenckii [2],> 64 µg/mL
same,MIC,Sporothrix schenckii [3],64 µg/mL
same,MIC,Sporothrix schenckii [4],16 µg/mL
same,MIC,Pichia kudriavzevii [5],32 µg/mL
same,MIC,Sporothrix schenckii [6],> 64 µg/mL
same,MIC,Sporothrix schenckii [7],64 µg/mL
same,MIC,Sporothrix schenckii [8],1 µg/mL
same,MIC,Sporothrix schenckii [9],> 64 µg/mL
same,MIC,Sporothrix schenckii [10],64 µg/mL
same,MIC,Sporothrix schenckii [11],32 µg/mL
same,MIC,Sporothrix schenckii [12],> 64 µg/mL
same,MIC,Candida parapsilosis [13],0.5 µg/mL
same,MIC,Sporothrix schenckii [14],8 µg/mL
same,MIC,Sporothrix schenckii [15],16 µg/mL
same,MIC50,Sporothrix schenckii [16],16 µg/mL
same,MIC90,Sporothrix schenckii [16],32 µg/mL
same,MIC,Sporothrix schenckii [17],> 64 µg/mL
same,MIC,Sporothrix schenckii [18],16 µg/mL
same,MIC,Candida parapsilosis [19],1 µg/mL
same,MIC,Sporothrix schenckii [20],8 µg/mL
same,MIC,Sporothrix schenckii [21],16 µg/mL
same,MIC,Sporothrix schenckii [22],32 µg/mL
same,MIC,Sporothrix schenckii [23],16 µg/mL
same,MIC,Sporothrix schenckii [24],8 µg/mL
same,MIC,Sporothrix schenckii [25],32 µg/mL
same,MIC,Sporothrix schenckii [26],16 µg/mL
same,MIC,Sporothrix schenckii [27],> 64 µg/mL
same,MIC,Sporothrix schenckii [28],64 µg/mL
same,MIC,Candida parapsilosis [29],1 µg/mL
same,MIC,Sporothrix schenckii [30],64 µg/mL
same,MIC,Sporothrix schenckii [31],16 µg/mL
same,MIC,Sporothrix schenckii [32],32 µg/mL
same,MIC,Sporothrix schenckii [33],64 µg/mL
same,MIC,Pichia kudriavzevii [34],16 µg/mL
same,MIC,Sporothrix schenckii [35],8 µg/mL
same,MIC,Sporothrix schenckii [36],1 µg/mL
same,MIC,Sporothrix schenckii [37],4 µg/mL
same,MIC50,Sporothrix schenckii [38],> 64 µg/mL
same,MIC50,Sporothrix schenckii [39],64 µg/mL
same,MIC90,Sporothrix schenckii [39],> 64 µg/mL
same,MIC,Sporothrix schenckii [40],16 µg/mL
same,MIC,Sporothrix schenckii [41],64 µg/mL
same,MIC,Sporothrix schenckii [42],32 µg/mL
same,MIC,Sporothrix schenckii [43],> 64 µg/mL
same,MIC,Sporothrix schenckii [44],> 64 µg/mL
same,MIC,Pichia kudriavzevii [45],32 µg/mL
same,MIC,Sporothrix schenckii [46],8 µg/mL
same,MIC,Sporothrix schenckii [47],> 64 µg/mL
CC(=O)N1CCN(c2ccc(OCC3COC(Cn4ccnc4)(c4ccc(Cl)cc4Cl)O3)cc2)CC1 (configuration not stated) [KETOCONAZOLE],MIC,Sporothrix schenckii [1],0.25 µg/mL
same,MIC,Sporothrix schenckii [4],0.125 µg/mL
same,MIC,Sporothrix schenckii [8],0.125 µg/mL
same,MIC,Sporothrix schenckii [14],0.25 µg/mL
same,MIC,Sporothrix schenckii [15],0.25 µg/mL
same,MIC50,Sporothrix schenckii [16],0.25 µg/mL
same,MIC90,Sporothrix schenckii [16],0.5 µg/mL
same,MIC,Sporothrix schenckii [17],0.125 µg/mL
same,MIC,Sporothrix schenckii [18],0.25 µg/mL
same,MIC,Candida parapsilosis [19],0.125 µg/mL
same,MIC,Sporothrix schenckii [20],0.125 µg/mL
same,MIC,Sporothrix schenckii [21],0.5 µg/mL
same,MIC,Sporothrix schenckii [22],0.125 µg/mL
same,MIC,Sporothrix schenckii [23],0.5 µg/mL
same,MIC,Sporothrix schenckii [24],0.125 µg/mL
same,MIC,Sporothrix schenckii [25],0.06 µg/mL
same,MIC,Sporothrix schenckii [26],0.06 µg/mL
same,MIC,Sporothrix schenckii [31],0.125 µg/mL
same,MIC,Sporothrix schenckii [35],0.25 µg/mL
same,MIC,Sporothrix schenckii [36],0.06 µg/mL
same,MIC,Sporothrix schenckii [40],0.5 µg/mL
same,MIC,Sporothrix schenckii [42],0.25 µg/mL
same,MIC,Pichia kudriavzevii [45],1 µg/mL
